pIC50: −log10 of the molar value.
Key:
[1] = tested on: HeLa (human cervix carcinoma) cells; experiment: MTT cytotoxicity assay, HeLa; type: cell-based; conditions: 48 h incubation, average (SD) of three experiments, read-out: IC50 HeLa
[2] = tested on: plasmid DNA (pcDNA3.1HisC); experiment: DNA-cleavage protection assay (BamHI digestion of plasmid DNA); type: biochemical; conditions: 100 µM, overnight 37 °C, then BamHI 3 h
Description: A DNA-cleavage protection assay has been successfully used for the identification of compounds that bind DNA either covalently or noncovalently. Such binding may result in DNA being less susceptible to enzymatic cleavage. […] It was also reported that naphtalenoimides or indolomaleimides intercalate into DNA [13, 14]. […] In CD studies, a synthetic 23-nt duplex DNA or bovine thymus DNA was incubated with compound Ic or daunorubicin (reference compound). […] Using a DNA-cleavage protection assay, we investigated whether selected compounds 2c, 2d, and 2f and 3c, 3d, and 3f interact with a plasmid DNA, resulting in increased resistance to endonucleolytic cleavage. Plasmid DNA (pcDNA3.1HisC) containing a single BamHI cleavage site was incubated with test compounds and subsequently digested with BamH1 restriction endonuclease. Daunorubicin (a strong DNA-intercalating agent) was used as a reference compound. Non-digested plasmid DNA existed predominantly in the circular form; however, the superhelical and linear forms were also detected (Figure 5, lane 1). […] This observation can be explained by the higher lipophilicity of 3c, 3d, and 3f compared to 2c, 2d, and 2f, which may facilitate their more efficient binding to DNA.
First, 0.5 μg of plasmid DNA (pcDNAHisC, total length 5.5 kbp) containing a unique BamHI restriction site was dissolved in a 1× BamHI reaction buffer and incubated overnight at 37 °C with the test compounds or daunorubicin. Daunorubicin, a strong intercalating agent, was used as a positive control. The concentration of the test compounds and daunorubicin samples was 100 µM. In the next step, the reaction mixtures were digested with BamHI restriction endonuclease (2 U/μL) for 3 h at 37 °C. The total reaction volume was 10 μL. Products of the reaction were subjected to the 1% agarose gel electrophoresis in TBE buffer. The gel was stained with ethidium bromide, and DNA fragments were visualized under a UV lamp (GBox, Syngene).

Q: `CCC12C(=O)C(CC)(C(c3ccccc3)=C1c1ccccc1)C1C(=O)N(CC(O)CNC(C)(C)C)C(=O)C12` (centres unmarked) [2c, 4-[3-(tert-butylamino)-2-hydroxypropyl]-1,7-diethyl-8,9-diphenyl-4-azatricyclo [5.2.1.0^2,6]dec-8-ene-3,5,10-trione] was tested. Which pIC50 [1] did it give?
A: The pIC50 was 5.49.

Q: And the “protection of plasmid DNA from BamHI digestion (circular DNA left)” value (“protection of plasmid DNA” below) [2]?
A: Its value is “the circular form was also detected”.

Q: With `CCN(CC)CC(O)CN1C(=O)C2C(C1=O)C1(CC)C(=O)C2(CC)C(c2ccccc2)=C1c1ccccc1` (centres unmarked) [2d, 4-[3-(diethylamino)-2-hydroxypropyl]-1,7-diethyl-8,9-diphenyl-4-azatricyclo [5.2.1.0^2,6]dec-8-ene-3,5,10-trione] as the compound, how does the pIC50 [1] read?
A: The pIC50 was 4.74.

Q: And the “protection of plasmid DNA” value [2]?
A: Its value is “the circular form was also detected”.

Q: `CC(C)(C)NCC(O)CN1C(=O)C2C(C1=O)C1(c3ccccc3)CC2(c2ccccc2)C(c2ccccc2)=C1c1ccccc1` (centres unmarked) [3c, 4-[3-(tert-butylamino)-2-hydroxypropyl]-1,7,8,9-tetraphenyl-4-azatricyclo[5.2.1.0^2,6]dec-8-ene-3,5-dione] was tested. Which pIC50 [1] did it give?
A: The pIC50 was 5.70.

Q: And the “protection of plasmid DNA” value [2]?
A: Its value is “interaction seems to be stronger”.

Q: What does the source list for `CCN(CC)CC(O)CN1C(=O)C2C(C1=O)C1(c3ccccc3)CC2(c2ccccc2)C(c2ccccc2)=C1c1ccccc1` (centres unmarked) [3d, 4-[3-(diethylamino)-2-hydroxypropyl]-1,7,8,9-tetraphenyl-4-azatricyclo[5.2.1.0^2,6]dec-8-ene-3,5-dione]?
A: pIC50 [1]: 5.72; protection of plasmid DNA from BamHI digestion (circular DNA left) [2]: interaction seems to be stronger

— publication PMC8122671, “New Succinimides with Potent Anticancer Activity: Synthesis, Activation of Stress Signaling Pathways and Characterization of Apoptosis in Leukemia and Cervical Cancer Cells” (International Journal of Molecular Sciences, 2021)
